This series in a line: Solubility test of compound in safe solvent. The settings on record: 23° C., ultrasonic wave 30 minutes, visual evaluation; for Solubility test of compound in safe solvent CHN: CHN (cyclohexanone); for Solubility test of compound in safe solvent PGME: PGME (propylene glycol monomethyl ether). The class given is physicochemical. How it is done:
(1) Solubility Test of Compound in Safe Solvent
The solubility of the compound in CHN, PGME and PGMEA was evaluated according to the following standard using the dissolution amount in each solvent. The dissolution amount was determined by precisely weighing the compound in a test tube at 23° C.; adding the target solvent to the compound so that a predetermined concentration of the liquid to be obtained was set; applying a ultrasonic wave to the liquid in an ultrasonic washing machine for 30 minutes; and visually evaluating the state of the resulting liquid.
A: 5.0% by mass Dissolution amount
B: 3.0% by mass Dissolution amount <5.0% by mass
C: Dissolution amount <3.0% by mass

The structures appear in SMILES notation.

As for `CC(C)(C)OC(=O)Oc1ccc2c(C(c3ccc(-c4ccccc4)cc3)c3c(OC(=O)OC(C)(C)C)ccc4cc(OC(=O)OC(C)(C)C)ccc34)c(OC(=O)OC(C)(C)C)ccc2c1` [BisN-1-BOC], the “Solubility test of compound in safe solvent CHN” value was “A (5.0% by mass Dissolution amount)”, the “Solubility test of compound in safe solvent PGME” value is “B (3.0% by mass Dissolution amount <5.0% by mass)” and the “Solubility test of compound in safe solvent PGMEA” value is on record as “A (5.0% by mass Dissolution amount)”.
As to `CC(C)(C)OC(=O)COc1ccc2c(C(c3ccc(-c4ccccc4)cc3)c3c(OCC(=O)OC(C)(C)C)ccc4cc(OCC(=O)OC(C)(C)C)ccc34)c(OCC(=O)OC(C)(C)C)ccc2c1` [BisN-1-MeBOC], the “Solubility test of compound in safe solvent CHN” value was “A (5.0% by mass Dissolution amount)”, the “Solubility test of compound in safe solvent PGME” value is “A (5.0% by mass Dissolution amount)” and the “Solubility test of compound in safe solvent PGMEA” value was “B (3.0% by mass Dissolution amount <5.0% by mass)”.
Take `CC(C)(C)OC(=O)Oc1ccc(C(c2ccc(OC(=O)OC(C)(C)C)cc2)c2ccc3ccc(C(c4ccc(OC(=O)OC(C)(C)C)cc4)c4ccc(OC(=O)OC(C)(C)C)cc4)cc3c2)cc1` [TetP-1-BOC, reference compound]: the “Solubility test of compound in safe solvent CHN” value is on record as “A (5.0% by mass Dissolution amount)”, the “Solubility test of compound in safe solvent PGME” value is listed as “A (5.0% by mass Dissolution amount)” and the “Solubility test of compound in safe solvent PGMEA” value is listed as “A (5.0% by mass Dissolution amount)”.
Turning to `CC(C)(C)OC(=O)Oc1ccc2c3c(ccc2c1)Oc1ccc2cc(OC(=O)OC(C)(C)C)ccc2c1C3c1ccc(-c2ccccc2)cc1` [XBisN-1-BOC], the “Solubility test of compound in safe solvent CHN” value is reported as “A (5.0% by mass Dissolution amount)”, the “Solubility test of compound in safe solvent PGME” value was “B (3.0% by mass Dissolution amount <5.0% by mass)” and the “Solubility test of compound in safe solvent PGMEA” value was “A (5.0% by mass Dissolution amount)”.
Take `CC(C)(C)OC(=O)COc1ccc2c3c(ccc2c1)Oc1ccc2cc(OCC(=O)OC(C)(C)C)ccc2c1C3c1ccc(-c2ccccc2)cc1` [XBisN-1-MeBOC]: the “Solubility test of compound in safe solvent CHN” value was “A (5.0% by mass Dissolution amount)”, the “Solubility test of compound in safe solvent PGME” value is “A (5.0% by mass Dissolution amount)” and the “Solubility test of compound in safe solvent PGMEA” value is “B (3.0% by mass Dissolution amount <5.0% by mass)”.

Values taken from patent publication US10377734B2, “Resist composition, method for forming resist pattern, polyphenol derivative for use in the composition” (Mitsubishi Gas Chemical Company, Inc., priority 2013, dated 2019).
